Data reported in patent US4125610A, “Antibacterial compositions” (priority 1977, dated 1978).
In brackets after ≈: the same amount, converted by molar mass. Read-outs that look alike come from different tables or passages of the source.

Tests used:
[1] = test system: Ps. fluorescens; conditions: in vivo; cited from earlier work
[2] = test system: experimental tuberculosis; conditions: cited from earlier work
[3] = test system: A20119; assay: Antibacterial activity, MIC by twofold broth dilution (Table 1), organism name not given; assay type: cell-based
Experimental: (§1) *The MIC's were determined by the twofold broth dilution method following
(§2) overnight incubation at 37° C in Meuller-Hinton Broth containing 2
(§3) lysed defibrinated horse blood and using 10^-4 dilutions of overnight
(§4) broth cultures (10^-3 dilutions of Staph. aureus strains A9606 and
(§5) A15097) as inocula at the rate of 0.5 ml of inoculum per 0.5 ml of […]

[4] = test system: K. pneumoniae A9977; assay: animal or person; assay type: in vivo, mice; conditions: Klebsiella pneumoniae, A9977, in Mus musculus, po, read-out: PD50 /treatment
[5] = test system: Plasmodium berghei; conditions: in vivo; cited from earlier work
[6] = test system: S. aureus A9537; assay: animal or person; assay type: in vivo, mice; conditions: Staphylococcus aureus, A9537, in Mus musculus, po
[7] = test system: S. pyogenes A9604; assay: animal or person; assay type: in vivo, mice; conditions: Streptococcus pyogenes, A9604, in Mus musculus, po, read-out: PD50 /treatment
[8] = test system: a variety of bacterial species; conditions: cited from earlier work
[9] = test system: E. coli A15119; assay: animal or person; assay type: in vivo, mice; conditions: Escherichia coli, A15119, in Mus musculus, po, read-out: PD50 /treatment
[10] = test system: S. typhosa; conditions: in vivo; cited from earlier work
[11] = test system: E. coli; assay: microbe, parasite or virus in culture; assay type: cell-based; conditions: Escherichia coli
Experimental: as §1, §2, §3, §4, §5

[12] = test system: Ent. cloacae; assay: microbe, parasite or virus in culture; assay type: cell-based; conditions: Enterobacter cloacae
Experimental: as §1, §2, §3, §4, §5

[13] = test system: Kl. pneumoniae; assay: microbe, parasite or virus in culture; assay type: cell-based; conditions: Klebsiella pneumoniae
Experimental: as §1, §2, §3, §4, §5

[14] = test system: Pr. mirabilis; assay: microbe, parasite or virus in culture; assay type: cell-based
Experimental: as §1, §2, §3, §4, §5

[15] = test system: Staph. aureus; assay: microbe, parasite or virus in culture; assay type: cell-based
Experimental: as §1, §2, §3, §4, §5

[16] = test system: Ps. aeruginosa; assay: microbe, parasite or virus in culture; assay type: cell-based; conditions: Pseudomonas aeruginosa
Experimental: as §1, §2, §3, §4, §5

[17] = test system: experimental tuberculosis; conditions: cited from earlier work; remark: listed apart in the source
[18] = test system: Histoplasma capsulatum; conditions: mouse, in vivo, iv; cited from earlier work
[19] = test system: P. mirabilis A9900; assay: animal or person; assay type: in vivo, mice; conditions: Proteus mirabilis, A9900, in Mus musculus, po
[20] = laboratory animals, cited from earlier work
[21] = test system: E. coli; assay: microbe, parasite or virus in culture; assay type: cell-based; conditions: Escherichia coli; remark: listed apart in the source
Experimental: (§6) The geometric mean MIC's were determined from MIC's obtained in two separate tests of each of the strains of Staphylococcus and Proteus, and three separate tests for each of the other organisms.

[22] = test system: Pr. rettgeri; assay: microbe, parasite or virus in culture; assay type: cell-based; conditions: Providencia rettgeri
Experimental: as §6

[23] = test system: Pr. morganii; assay: microbe, parasite or virus in culture; assay type: cell-based; conditions: Morganella morganii
Experimental: as §6

[24] = test system: Ent. cloacae; assay: microbe, parasite or virus in culture; assay type: cell-based; conditions: Enterobacter cloacae; remark: listed apart in the source
Experimental: as §6

[25] = test system: Kl. pneumoniae; assay: microbe, parasite or virus in culture; assay type: cell-based; conditions: Klebsiella pneumoniae; remark: listed apart in the source
Experimental: as §6

[26] = test system: Pr. mirabilis; assay: microbe, parasite or virus in culture; assay type: cell-based; conditions: Proteus mirabilis
Experimental: as §6

[27] = test system: Staph. aureus; assay: microbe, parasite or virus in culture; assay type: cell-based; conditions: Staphylococcus aureus, read-out: Geometric Mean MIC
Experimental: as §6

[28] = test system: Pr. vulgaris; assay: microbe, parasite or virus in culture; assay type: cell-based; conditions: for MIC: Proteus vulgaris
Experimental: as §6

Nc1ccc(P(=O)(O)O)cc1 [P, p-aminophenylphosphonic acid]
efficacy in infected mice [1]: effective in vivo
tubercularstatic activity in vitro [2]: good tubercularstatic activity in vitro
MIC [3]: > 125 µg/mL
ED50 ([4]; 54 h): > 400 mg/kg
ED50 [4]: > 400 mg/kg
efficacy in infected mice [5]: effective in vivo
ED50 ([6]; read-out: PD50 /treatment): > 400 mg/kg
ED50 ([6]; read-out: PD50 /treatment, oral, mice, challenge 1×10^5, 0 and 4 hr post-challenge): > 100 mg/kg
ED50 [7]: > 400 mg/kg
in vitro activity compared with sulfathiazole ([8]; molar basis): approached that of sulfathiazole
in vitro activity ([8]; relative to the compounds tested): generally the most active of the compounds tested
ED50 ([9]; 3 h): > 400 mg/kg
ED50 [9]: > 400 mg/kg
efficacy in infected mice [10]: effective in vivo
MIC [11]: > 125 µg/mL
MIC ([11]; strain A15119): > 125 µg/mL
MIC ([11]; strain A-9671): > 125 µg/mL
MIC ([12]; strain A-9656): > 125 µg/mL
MIC ([12]; strain A-9657): 63 µg/mL (≈ 364 µM)
MIC ([12]; strain A-9659): > 125 µg/mL
MIC [13]: > 125 µg/mL
MIC ([13]; strain A15130): > 125 µg/mL
MIC ([13]; strain A20468): > 125 µg/mL
MIC ([14]; Proteus mirabilis): > 125 µg/mL
MIC ([14]; Proteus mirabilis, strain A-9696): > 125 µg/mL
MIC ([15]; Staphylococcus aureus): > 125 µg/mL
MIC ([15]; strain A15097, 10^-3 dilution inoculum): > 125 µg/mL
MIC ([15]; strain A-9606, 10^-3 dilution inoculum): > 125 µg/mL
MIC ([16]; strain A15151): 1 µg/mL (≈ 5.78 µM)
MIC ([16]; strain A20126): 16 µg/mL (≈ 92.4 µM)
MIC ([16]; strain A20227): 1 µg/mL (≈ 5.78 µM)
MIC ([16]; strain A20229): 63 µg/mL (≈ 364 µM)
MIC ([16]; strain A20543): 16 µg/mL (≈ 92.4 µM)
MIC ([16]; strain A20574): 1 µg/mL (≈ 5.78 µM)
MIC ([16]; strain A20602): 125 µg/mL (≈ 722 µM)
MIC ([16]; strain A-9843a): 4 µg/mL (≈ 23.1 µM)
MIC ([16]; strain A-9925): 16 µg/mL (≈ 92.4 µM)
effect in vivo [17]: no effect in vivo
protective effect [18]: some protective effect
ED50 ([19]; read-out: PD50 /treatment, oral, mice, challenge 6×10^6, 0 and 2 hr post-challenge): > 200 mg/kg
ED50 ([19]; read-out: PD50 /treatment, oral, mice, challenge 8×10^6, 0 and 2 hr post-challenge (1st P. mirabilis line)): > 800 mg/kg
ED50 ([19]; read-out: PD50 /treatment, oral, mice, challenge 8×10^6, 0 and 2 hr post-challenge (3rd P. mirabilis line)): > 200 mg/kg
absorption ([20]; blood level studies): poor absorption
toxicity [20]: low toxicity
MIC ([21]; read-out: Geometric Mean MIC, 1 strain (1st E. coli line)): 6.4 µg/mL (≈ 37 µM)
MIC ([21]; read-out: Geometric Mean MIC, 2 strains (2nd E. coli line)): 18 µg/mL (≈ 104 µM)
MIC ([21]; read-out: Geometric Mean MIC, 2 strains (3rd E. coli line)): > 125 µg/mL
MIC ([21]; read-out: Geometric Mean MIC, 4 strains (4th E. coli line)): 20 µg/mL (≈ 116 µM)
MIC ([22]; read-out: Geometric Mean MIC, 1 strain (1st Pr. rettgeri line)): 0.5 µg/mL (≈ 2.89 µM)
MIC ([22]; read-out: Geometric Mean MIC, 1 strain (2nd Pr. rettgeri line)): > 125 µg/mL
MIC ([23]; read-out: Geometric Mean MIC, 1 strain (1st Pr. morganii line)): > 125 µg/mL
MIC ([23]; read-out: Geometric Mean MIC, 2 strains (2nd Pr. morganii line)): 11.3 µg/mL (≈ 65.3 µM)
MIC ([24]; read-out: Geometric Mean MIC, 1 strain (1st Ent. cloacae line)): 8 µg/mL (≈ 46.2 µM)
MIC ([24]; read-out: Geometric Mean MIC, 1 strain (3rd Ent. cloacae line)): > 125 µg/mL
MIC ([24]; read-out: Geometric Mean MIC, 2 strains (4th Ent. cloacae line)): 63 µg/mL (≈ 364 µM)
MIC ([24]; read-out: Geometric Mean MIC, 3 strains (2nd Ent. cloacae line)): 20 µg/mL (≈ 116 µM)
MIC ([25]; read-out: Geometric Mean MIC, 1 strain (2nd Kl. pneumoniae line)): 40 µg/mL (≈ 231 µM)
MIC ([25]; read-out: Geometric Mean MIC, 1 strain (4th Kl. pneumoniae line)): > 125 µg/mL
MIC ([25]; read-out: Geometric Mean MIC, 2 strains (3rd Kl. pneumoniae line)): 40 µg/mL (≈ 231 µM)
MIC ([25]; read-out: Geometric Mean MIC, 5 strains (1st Kl. pneumoniae line)): 18 µg/mL (≈ 104 µM)
MIC ([26]; read-out: Geometric Mean MIC, 1 strain (3rd Pr. mirabilis line)): 11.3 µg/mL (≈ 65.3 µM)
MIC ([26]; read-out: Geometric Mean MIC, 1 strain (4th Pr. mirabilis line)): 16 µg/mL (≈ 92.4 µM)
MIC ([26]; read-out: Geometric Mean MIC, 2 strains (2nd Pr. mirabilis line)): > 105 µg/mL
MIC ([26]; read-out: Geometric Mean MIC, 4 strains (1st Pr. mirabilis line)): 7.3 µg/mL (≈ 42.2 µM)
MIC [27]: > 109 µg/mL
MIC ([28]; read-out: Geometric Mean MIC, 1 strain (first listed Pr. vulgaris)): > 125 µg/mL
MIC ([28]; read-out: Geometric Mean MIC, 2 strains (2nd Pr. vulgaris line)): 8 µg/mL (≈ 46.2 µM)
component in the 16:1 mixture at its MIC as % of its individual MIC ([28]; first listed strain of Pr. vulgaris): < 3.0%
amount of component in 4 μg/ml of the 16:1 mixture ([28]; first listed strain of Pr. vulgaris, 16:1 mixture at its MIC): 3.76 µg/mL

COc1cc(Cc2cnc(N)nc2N)cc(OC)c1OC [T, 2,4-diamino-5-(3',4',5'-trimethoxybenzyl)pyrimidine]
MIC [3]: 16 µg/mL (≈ 55.1 µM)
ED50 ([4]; 54 h): 348 mg/kg
ED50 [7]: > 400 mg/kg
ED50 ([9]; 3 h): 200 mg/kg
ED50 [9]: 262 mg/kg
MIC [14]: 4 µg/mL (≈ 13.8 µM)
MIC ([14]; Proteus mirabilis): 2 µg/mL (≈ 6.89 µM)
MIC ([15]; Staphylococcus aureus): 0.25 µg/mL (≈ 0.861 µM)
ED50 ([19]; read-out: PD50 /treatment): > 200 mg/kg
MIC [27]: 0.5 µg/mL (≈ 1.72 µM)
Geometric Mean MIC [28]: 0.6 µg/mL
amount of component in 4 μg/ml of the 16:1 mixture [28]: 0.235 µg/mL
component in the 16:1 mixture at its MIC as % of its individual MIC [28]: 23%
MIC ([28]; read-out: Geometric Mean MIC): 1 µg/mL (≈ 3.44 µM)
